{"source": "patent EP0097071A1", "about": "“Benzhydryl sulfinylacetamide derivatives and their therapeutical use” (LABORATOIRE L. LAFON Société anonyme dite:, priority 1982, dated 1983)", "key": {"SNC": {"tested_on": "SNC", "assay": "Essential activity on the CNS (Tableau I and conclusions of the neuropsychopharmacological study)", "assay_type": "in vivo", "excerpt": "Dans le tableau I ci-après, on a consigné un certain nombre de composés selon la formule I de façon nullement limitative, en mentionnant l'activité essentielle sur le SNC.\nLes composés de formule I agissent tous sur le SNC. Les produits des exemples 1-3 et 7-8 sont des agents stimulants, en revanche les produits des exemples 4-6 sont des agents sédatifs."}, "souris mâle [1]": {"tested_on": "souris mâle", "assay": "Pentobarbital-induced sleep duration", "assay_type": "in vivo", "conditions": "dose 8 mg/kg i.p., 0,5 h before pentobarbital", "excerpt": "Les composés selon l'invention se distinguent du benzhydrylsulfinylacétamide (CRL 40476) précité par une différence d'action vis-à-vis du sommeil barbiturique. […]. Cette différence d'action qui est intéressante sur le plan thérapeutique est illustrée par le tableau IV"}, "souris mâle [2]": {"tested_on": "souris mâle", "assay": "Toxicity, DL-0", "assay_type": "in vivo", "conditions": "i.p.", "procedure": "(§1) On a résumé ci-après les résultats des essais pharmacologiques qui ont été entrepris avec les produits selon la présente addition. Dans ces essais, les produits de formule I à étudier ont été administrés par voie intrapéritonéale, en suspension dans une solution aqueuse de gomme arabique, sous un volume de 20 ml/kg chez la souris mâle et sous un volume de 5 ml/kg chez le rat mâle.\nLa toxicité a été étudiée chez la souris mâle. Les résultats relatifs à la DL-0 (dose minimale non mortelle) sont donnés dans le tableau II ci-après."}, "[3]": {"assay": "Global behaviour and reactivities, mouse", "assay_type": "in vivo, souris", "conditions": "mouse, in vivo, ip, souris, 24 h après administration, read-out: mortalité tardive", "procedure": "as §1\n(§2) Pour apprécier le comportement global et les réactivités, des lots de six animaux (souris mâles ou rats mâles) ont été observés avant administration de chaque produit, puis 15 min, 30 min, 1 h, 2 h, 3 h et 24 h après administration de chaque produit. Les résultats sont consignés dans le tableau III ci-après, […]"}, "souris mâles": {"tested_on": "souris mâles", "assay": "Global behaviour and reactivities, mouse", "assay_type": "in vivo", "conditions": "souris", "procedure": "as §1, §2"}, "rats mâles": {"tested_on": "rats mâles", "assay": "Global behaviour and reactivities, rat", "assay_type": "in vivo", "procedure": "as §1, §2"}, "souris [4]": {"tested_on": "souris", "assay": "Interaction with apomorphine, mouse", "assay_type": "in vivo", "procedure": "as §1\nDes lots de 6 souris par dose reçoivent le CRL 40933 0,5 h avant l'injection sous-cutanée d'apomorphine administrée à la dose de 1 ou 16 mg/kg."}, "rat": {"tested_on": "rat", "assay": "Interaction with apomorphine, rat", "assay_type": "in vivo", "conditions": "apomorphine 0,5 mg/kg s.c., dose not stated", "procedure": "as §1\nLe CRL 40933 est administré à des lots de 6 rats 0,5 h avant l'injection sous-cutanée de 0,5 mg/kg d'apomorphine."}, "rats": {"tested_on": "rats", "assay": "Interaction with amphetamine (stereotypies)", "assay_type": "in vivo", "conditions": "rat; amphétamine 2 mg/kg i.p.; doses used, not stated", "procedure": "as §1\nL'amphétamine (2 mg/kg)est injectée par voie intrapéritonéale à des lots de 6 rats, 30 min après l'administration de CRL 40933."}, "souris [5]": {"tested_on": "souris", "assay": "Interaction with reserpine", "assay_type": "in vivo", "conditions": "32 mg/kg et 12'8 mg/kg i.p.", "procedure": "as §1\nQuatre heures après l'injection intrapéritonéale de 2,5 mg/kg de réserpine, des lots de 6 souris reçoivent le CRL 40933."}, "souris [6]": {"tested_on": "souris", "assay": "Interaction with oxotremorine", "assay_type": "in vivo", "procedure": "as §1\nLe CRL 40933 est administré à des lots de 6 souris 0,5 h avant l'injection intrapéritonéale de 0,5 mg/kg d'oxotrémorine."}, "souris [7]": {"tested_on": "souris", "assay": "Four plates test", "assay_type": "in vivo", "conditions": "0,5 h after administration, dose not stated", "procedure": "as §1\n(§3) Les essais sont effectués sur des lots de 10 souris (par dose) 0,5 h après l'administration du CRL 40933."}, "souris [8]": {"tested_on": "souris", "assay": "Traction test", "assay_type": "in vivo", "conditions": "0,5 h after administration, dose not stated", "procedure": "as §1, §3"}, "souris [9]": {"tested_on": "souris", "assay": "Electroshock", "assay_type": "in vivo", "conditions": "32 mg/kg à 128 mg/kg i.p.", "procedure": "as §1, §3"}, "souris [10]": {"tested_on": "souris", "assay": "Spontaneous motility (actimeter)", "assay_type": "in vivo", "procedure": "as §1\nUne demi-heure, après avoir reçu le CRL 40933, les souris (6 par dose, 12 témoins) sont placées en actimètre où leur motilité est enregistrée pendant 30 min."}, "souris [11]": {"tested_on": "souris", "assay": "Intergroup aggressiveness", "assay_type": "in vivo", "conditions": "dose not stated", "procedure": "as §1\nAprès avoir séjourné pendant 3 semaines dans chacune des moitiés d'une cage séparées par une cloison opaque, des groupes de 3 souris reçoivent le CRL 40933. 30 min plus tard, les deux groupes d'une même cage sont réunis par retrait de la cloison et on note le nombre de combats qui surviennent en 10 min."}, "souris [12]": {"tested_on": "souris", "assay": "Motility reduced by habituation to the enclosure", "assay_type": "in vivo", "procedure": "as §1\nAprès 18 h de séjour dans les actimètres, les souris (6 par dose, 12 témoins) reçoivent le CRL 40933. Elles sont aussitôt replacées dans leurs enceintes respectives et, 30 min plus tard, on enregistre leur motilité pendant 30 min."}, "souris [13]": {"tested_on": "souris", "assay": "Motility reduced by hypoxic aggression (acute hypobaric anoxia)", "assay_type": "in vivo", "conditions": "128 mg/kg i.p.", "procedure": "as §1\nUne demi-heure après avoir reçu le CRL 40933, les souris (10 par dose, 20 témoins) sont soumises à une anoxie hypobare aiguë [dépression de 600 mm Hg (soit environ 8 x 10^4 pascals) en 90 s, puis détente de 45 s], puis elles sont placées en actimètre où leur motilité est enregistrée pendant 10 min."}, "souris [14]": {"tested_on": "souris", "assay": "Asphyxic anoxia (gallamine triethiodide)", "assay_type": "in vivo", "conditions": "128 mg/kg i.p., 30 min before triiodoéthylate de gallamine 32 mg/kg i.p.", "procedure": "as §1\nDes lots de 10 souris par dose reçoivent le CRL 40933 30 min avant l'administration intrapéritonéale de 32 mg/kg de triiodoéthylate de gallamine."}, "souris [15]": {"tested_on": "souris", "assay": "Interaction with barbital (sleep)", "assay_type": "in vivo", "conditions": "dès la dose de 8 mg/kg i.p., barbital 220 mg/kg i.p.", "procedure": "as §1\nUne demi-heure après l'administration de CRL 40933, des lots de 10 souris reçoivent une injection intrapéritonéale de 220 mg/kg de barbital."}, "souris [16]": {"tested_on": "souris", "assay": "Behavioural despair (forced immersion)", "assay_type": "in vivo", "conditions": "souris; 8 mg/kg, 32 mg/kg, mais surtout 128 mg/kg i.p.", "procedure": "as §1\nUne demi-heure après avoir reçu le CRL 40933, des lots de 10 souris par dose sont placés dans un espace restreint rempli d'eau sur une hauteur de 6 cm; on note la durée d'immobilité entre la 2e et la 6e minute suivant l'immersion."}, "homme": {"tested_on": "homme", "assay": "Clinical trials", "assay_type": "in vivo", "excerpt": "Les études cliniques ont porté sur les troubles de la vigilance, de l'éveil et des états confusionnels, d'une part, et sur les troubles de l'affectivité, du contact et des dépressions, d'autre part."}}, "note": "Like-named read-outs stand apart in the source and are kept apart here."}
{"smiles": "NC(=O)C[S+]([O-])C(c1ccccc1)c1ccc(Cl)cc1", "note": "(stereo not shown) [Exemple 7, 4-chlorobenzhydrylsulfinylacétamide]", "values": [{"measurement": "Activité sur le SNC", "setting": "SNC; in vivo", "result": "stimulant"}, {"measurement": "conclusion of the neuropsychopharmacological study: main type of CNS effect", "setting": "SNC; in vivo", "result": "effets de type stimulant"}, {"measurement": "conclusion: effets de type antidépresseur", "setting": "SNC; in vivo", "result": "effets de type antidépresseur qui sont faibles"}, {"measurement": "conclusion: effets anticonvulsivants", "setting": "SNC; souris mâle", "result": "effets anticonvulsivants"}, {"measurement": "Action sur la durée du sommeil induit par le pentobarbital (50 mg/kg i.p.) effet", "setting": "souris mâle [1]", "result": "(a)"}, {"measurement": "DL-O", "setting": "souris mâle [2]", "result": "supérieure à 256 mg/kg"}, {"measurement": "mortality at 24 h", "setting": "[3]; 512 mg/kg i.p.", "result": 33, "unit": "%"}, {"measurement": "mortality at 24 h", "setting": "[3]; 1024 mg/kg i.p.", "result": 66, "unit": "%"}, {"measurement": "Observations (comportement global et réactivités)", "setting": "souris mâles; 512 mg/kg i.p.", "result": "crampes abdominales, sédation et hypo-réactivité au toucher"}, {"measurement": "Observations (comportement global et réactivités)", "setting": "souris mâles; 1024 mg/kg i.p.", "result": "crampes abdominales, sédation et hypo-réactivité au toucher, respiration dépri-mée"}, {"measurement": "Observations (comportement global et réactivités)", "setting": "souris mâles; 128 mg/kg i.p.", "result": "excitation apparaissant 1,5 h après administration et durant 3 h - réactivité au toucher"}, {"measurement": "Observations (comportement global et réactivités)", "setting": "souris mâles; 256 mg/kg i.p.", "result": "crampes abdominales, respiration déprimée, puis - excitation apparaissant 1,5 h après administration"}, {"measurement": "Observations (comportement global et réactivités)", "setting": "rats mâles; 16 mg/kg i.p.", "result": "mydriase 1 h après administration"}, {"measurement": "Observations (comportement global et réactivités)", "setting": "rats mâles; 64 mg/kg i.p.", "result": "hypotonie musculaire pendant 3 h - respiration déprimée pendant 3 h - mydriase pendant 2 à 3 h"}, {"measurement": "comportement de verticalisation et stéréotypies (apomorphine)", "setting": "souris [4]; 128 mg/kg i.p.", "result": "sans modifier"}, {"measurement": "action hypothermisante de l'apomorphine", "setting": "souris [4]; 128 mg/kg i.p. 0,5 h before apomorphine 16 mg/kg s.c.", "result": "s'oppose"}, {"measurement": "stéréotypies induites par l'apomorphine", "setting": "rat", "result": "ne modifie pas"}, {"measurement": "stéréotypies amphétaminiques", "setting": "rats", "result": "ne modifie pas sensiblement"}, {"measurement": "ptôsis réserpinique", "setting": "souris [5]", "result": "sans modifier"}, {"measurement": "hypothermie réserpinique", "setting": "souris [5]; 4 h after réserpine 2,5 mg/kg i.p.", "result": "s'oppose très faiblement"}, {"measurement": "effet hypothermisant de l'oxotrémorine", "setting": "souris [6]; 128 mg/kg i.p., 0,5 h before oxotrémorine 0,5 mg/kg i.p.", "result": "s'oppose faiblement"}, {"measurement": "signes de stimulation cholinergique périphérique dus à l'oxotrémorine", "setting": "souris [6]; dose not stated", "result": "ne modifie pas"}, {"measurement": "tremblements induits par l'oxotrémorine", "setting": "souris [6]; dose not stated", "result": "ne sont pas influencés"}, {"measurement": "nombre de passages punis", "setting": "souris [7]", "result": "n'entraine pas d'augmentation nette"}, {"measurement": "déficit moteur (traction)", "setting": "souris [8]", "result": "ne provoque pas de déficit moteur majeur"}, {"measurement": "effets convulsivants de l'électrochoc", "setting": "souris [9]", "result": "s'oppose"}, {"measurement": "motilité spontanée", "setting": "souris [10]; 2 mg/kg i.p. (lowest dose used)", "result": "diminution de motilité"}, {"measurement": "motilité spontanée", "setting": "souris [10]; 32 mg/kg et 128 mg/kg i.p.", "result": "augmentation nette"}, {"measurement": "agressivité intergroupes (nombre de combats)", "setting": "souris [11]", "result": "ne modifie pas nettement"}, {"measurement": "reprise de l'activité chez la souris habituée à son enceinte", "setting": "souris [12]; 2 mg/kg et 8 mg/kg i.p.", "result": "à peine perceptible"}, {"measurement": "reprise de l'activité chez la souris habituée à son enceinte", "setting": "souris [12]; 32 mg/kg à 128 mg/kg i.p.", "result": "net"}, {"measurement": "récupération motrice après séjour bref dans une enceinte à pression réduite", "setting": "souris [13]", "result": "amélioration nette"}, {"measurement": "délai d'apparition des convulsions et de la mort consécutives à une anoxie asphyxique", "setting": "souris [14]", "result": "diminue"}, {"measurement": "durée du sommeil induit par le barbital", "setting": "souris [15]", "result": "diminue"}, {"measurement": "durée d'immobilité", "setting": "souris [16]", "result": "diminue"}, {"measurement": "action contre l'énurésie", "setting": "homme", "result": "agissent efficacement"}, {"measurement": "résultats en tant que médicaments de l'éveil", "setting": "homme; notamment vieillard, gélules ou comprimés de 100 à 200 mg, 1 à 3 par jour", "result": "excellents résultats"}]}
